Test results as given in the NIST ThermoML archive (doi:10.1016/j.jct.2015.01.007).
± gives the expanded uncertainty stated by the source.

Experiment: molar heat capacity at constant pressure
Conditions: 101.33 kPa, Crystal 1

O=P([O-])([O-])[O-].[Fe+2].[Li+] [iron(II) lithium phosphate]
Conditions	molar heat capacity at constant pressure [J/K/mol]
66.42 K, relaxation calorimetry	28.2 ± 1.1
67.51 K, relaxation calorimetry	28.84 ± 1.2
68.59 K, relaxation calorimetry	29.48 ± 1.2
69.68 K, relaxation calorimetry	30.12 ± 1.2
70 K, combination of DSC and relaxation calorimetry	30.31 ± 1.2
70.77 K, relaxation calorimetry	30.78 ± 1.2
71.15 K, relaxation calorimetry	31.26 ± 1.3
73.24 K, relaxation calorimetry	32.53 ± 1.3
75.34 K, relaxation calorimetry	33.86 ± 1.4
77.43 K, relaxation calorimetry	35.17 ± 1.4
79.53 K, relaxation calorimetry	36.46 ± 1.5
80 K, combination of DSC and relaxation calorimetry	36.84 ± 1.5
81.62 K, relaxation calorimetry	37.8 ± 1.5
83.72 K, relaxation calorimetry	39.15 ± 1.6
85.81 K, relaxation calorimetry	40.41 ± 1.6
87.9 K, relaxation calorimetry	41.69 ± 1.7
90 K, combination of DSC and relaxation calorimetry	43.39 ± 1.8
90 K, relaxation calorimetry	42.91 ± 1.7
92.09 K, relaxation calorimetry	44.24 ± 1.8
94.19 K, relaxation calorimetry	45.59 ± 1.9
96.28 K, relaxation calorimetry	46.89 ± 1.9
98.38 K, relaxation calorimetry	48.18 ± 2
100 K, combination of DSC and relaxation calorimetry	49.48 ± 2
100.47 K, relaxation calorimetry	49.44 ± 2
102.56 K, relaxation calorimetry	50.67 ± 2.1
104.65 K, relaxation calorimetry	52.08 ± 2.1
106.73 K, relaxation calorimetry	53.17 ± 2.2
108.85 K, relaxation calorimetry	54.37 ± 2.2
110 K, combination of DSC and relaxation calorimetry	55.21 ± 2.2
110.94 K, relaxation calorimetry	55.54 ± 2.3
113.02 K, relaxation calorimetry	56.62 ± 2.3
115.13 K, relaxation calorimetry	58.05 ± 2.4
117.22 K, relaxation calorimetry	59.3 ± 2.4
119.27 K, relaxation calorimetry	60.39 ± 2.5
119.96 K, relaxation calorimetry	60.87 ± 2.5
120 K, combination of DSC and relaxation calorimetry	60.65 ± 2.5
120.69 K, relaxation calorimetry	61.12 ± 2.5
121.4 K, relaxation calorimetry	61.55 ± 2.5
122.12 K, relaxation calorimetry	61.93 ± 2.5
122.83 K, relaxation calorimetry	62.24 ± 2.5
123.54 K, relaxation calorimetry	62.63 ± 2.5
124.25 K, relaxation calorimetry	63.1 ± 2.6
124.96 K, relaxation calorimetry	63.45 ± 2.6
125.68 K, relaxation calorimetry	63.84 ± 2.6
126.36 K, relaxation calorimetry	64.12 ± 2.6
127.07 K, relaxation calorimetry	64.49 ± 2.6
127.81 K, relaxation calorimetry	64.96 ± 2.6
130 K, combination of DSC and relaxation calorimetry	65.85 ± 2.7
131.36 K, relaxation calorimetry	66.82 ± 2.7
140 K, combination of DSC and relaxation calorimetry	70.83 ± 2.9
141.32 K, relaxation calorimetry	71.82 ± 2.9
150 K, combination of DSC and relaxation calorimetry	75.59 ± 3.1
151.46 K, relaxation calorimetry	76.8 ± 3.1
160 K, combination of DSC and relaxation calorimetry	80.13 ± 3.2
161.54 K, relaxation calorimetry	81.23 ± 3.3
170 K, combination of DSC and relaxation calorimetry	84.45 ± 3.4
171.6 K, relaxation calorimetry	85.36 ± 3.5
180 K, combination of DSC and relaxation calorimetry	88.56 ± 3.6
181.68 K, relaxation calorimetry	89.21 ± 3.6
190 K, combination of DSC and relaxation calorimetry	92.44 ± 3.8
191.78 K, relaxation calorimetry	93.16 ± 3.8
200 K, combination of DSC and relaxation calorimetry	96.11 ± 3.9
201.84 K, relaxation calorimetry	97.49 ± 4
210 K, combination of DSC and relaxation calorimetry	99.57 ± 4
211.78 K, relaxation calorimetry	100.3 ± 4.1
220 K, combination of DSC and relaxation calorimetry	102.8 ± 4.2
222.01 K, relaxation calorimetry	103.27 ± 4.2
230 K, combination of DSC and relaxation calorimetry	105.9 ± 4.3
232.1 K, relaxation calorimetry	105.66 ± 4.3
240 K, combination of DSC and relaxation calorimetry	108.7 ± 4.4
242.04 K, relaxation calorimetry	108.22 ± 4.4
250 K, combination of DSC and relaxation calorimetry	111.4 ± 4.5
252.15 K, relaxation calorimetry	110.6 ± 4.5
260 K, combination of DSC and relaxation calorimetry	113.9 ± 4.6
262.34 K, relaxation calorimetry	112.67 ± 4.6
270 K, combination of DSC and relaxation calorimetry	116.3 ± 4.7
272.43 K, relaxation calorimetry	114.97 ± 4.7
280 K, combination of DSC and relaxation calorimetry	118.4 ± 4.8
282.56 K, relaxation calorimetry	117.79 ± 4.8
284.9 K, Small sample (50 mg) DSC	120.8 ± 3
290 K, combination of DSC and relaxation calorimetry	120.5 ± 4.9
292.55 K, relaxation calorimetry	120.06 ± 4.9
293.2 K, Large sample (1 g) DSC	120.85 ± 3
294.8 K, Small sample (50 mg) DSC	122.5 ± 3
298.15 K, combination of DSC and relaxation calorimetry	122.1 ± 5
300 K, combination of DSC and relaxation calorimetry	122.4 ± 5
302.7 K, relaxation calorimetry	120.5 ± 4.9
304.6 K, Small sample (50 mg) DSC	126.1 ± 3.1
313.2 K, Large sample (1 g) DSC	125.4 ± 3.1
314.5 K, Small sample (50 mg) DSC	128.2 ± 3.1
320 K, combination of DSC and relaxation calorimetry	129 ± 5.2
324.4 K, Small sample (50 mg) DSC	129.7 ± 3.2
333.2 K, Large sample (1 g) DSC	128 ± 3.1
334.4 K, Small sample (50 mg) DSC	132.2 ± 3.2
340 K, combination of DSC and relaxation calorimetry	133.4 ± 5.4
344.3 K, Small sample (50 mg) DSC	134.8 ± 3.3
353.2 K, Large sample (1 g) DSC	130.1 ± 3.2
354.2 K, Small sample (50 mg) DSC	136.3 ± 3.3
360 K, combination of DSC and relaxation calorimetry	137.6 ± 5.6
364.1 K, Small sample (50 mg) DSC	137.9 ± 3.4
374 K, Small sample (50 mg) DSC	140.2 ± 3.4
380 K, combination of DSC and relaxation calorimetry	141.6 ± 5.8
383.9 K, Small sample (50 mg) DSC	142.9 ± 3.5
393.8 K, Small sample (50 mg) DSC	145.5 ± 3.6
400 K, combination of DSC and relaxation calorimetry	145.3 ± 5.9
403.8 K, Small sample (50 mg) DSC	147 ± 3.6
413.7 K, Small sample (50 mg) DSC	148.9 ± 3.6
420 K, combination of DSC and relaxation calorimetry	148.7 ± 6
423.6 K, Small sample (50 mg) DSC	150.3 ± 3.7
433.5 K, Small sample (50 mg) DSC	151.6 ± 3.7
440 K, combination of DSC and relaxation calorimetry	151.9 ± 6.2
443.4 K, Small sample (50 mg) DSC	152.8 ± 3.7
453.3 K, Small sample (50 mg) DSC	154 ± 3.8
460 K, combination of DSC and relaxation calorimetry	154.9 ± 6.3
463.3 K, Small sample (50 mg) DSC	155 ± 3.8
473.2 K, Small sample (50 mg) DSC	156.3 ± 3.8
480 K, combination of DSC and relaxation calorimetry	157.7 ± 6.4
483.1 K, Small sample (50 mg) DSC	157.5 ± 3.9
493 K, Small sample (50 mg) DSC	159 ± 3.9
500 K, combination of DSC and relaxation calorimetry	160.3 ± 6.5
502.9 K, Small sample (50 mg) DSC	160 ± 3.9
512.8 K, Small sample (50 mg) DSC	161 ± 3.9
520 K, combination of DSC and relaxation calorimetry	162.7 ± 6.6
522.7 K, Small sample (50 mg) DSC	162.2 ± 4
532.6 K, Small sample (50 mg) DSC	163.4 ± 4
540 K, combination of DSC and relaxation calorimetry	164.9 ± 6.7
542.5 K, Small sample (50 mg) DSC	165 ± 4
552.4 K, Small sample (50 mg) DSC	166.2 ± 4.1
560 K, combination of DSC and relaxation calorimetry	167 ± 6.8
562.3 K, Small sample (50 mg) DSC	167.1 ± 4.1
572.3 K, Small sample (50 mg) DSC	168.3 ± 4.1
580 K, combination of DSC and relaxation calorimetry	169 ± 6.9
582.2 K, Small sample (50 mg) DSC	169.6 ± 4.2
592.1 K, Small sample (50 mg) DSC	170.4 ± 4.2
600 K, combination of DSC and relaxation calorimetry	170.9 ± 6.9
602 K, Small sample (50 mg) DSC	171.1 ± 4.2
611.9 K, Small sample (50 mg) DSC	173 ± 4.2
620 K, combination of DSC and relaxation calorimetry	172.8 ± 7
621.8 K, Small sample (50 mg) DSC	173.6 ± 4.3
631.7 K, Small sample (50 mg) DSC	174.2 ± 4.3
640 K, combination of DSC and relaxation calorimetry	174.5 ± 7.1
641.6 K, Small sample (50 mg) DSC	174.9 ± 4.3
651.6 K, Small sample (50 mg) DSC	175.7 ± 4.3
660 K, combination of DSC and relaxation calorimetry	176.3 ± 7.2
661.5 K, Small sample (50 mg) DSC	176.8 ± 4.3
671.8 K, Small sample (50 mg) DSC	177.4 ± 4.3
680 K, combination of DSC and relaxation calorimetry	178.1 ± 7.2
681.3 K, Small sample (50 mg) DSC	178 ± 4.4
691.3 K, Small sample (50 mg) DSC	178.7 ± 4.4
700 K, combination of DSC and relaxation calorimetry	179.8 ± 7.3
701.2 K, Small sample (50 mg) DSC	179.4 ± 4.4
711.1 K, Small sample (50 mg) DSC	180.6 ± 4.4
720 K, combination of DSC and relaxation calorimetry	181.6 ± 7.4
721 K, Small sample (50 mg) DSC	181.6 ± 4.4
730.9 K, Small sample (50 mg) DSC	182.4 ± 4.5
740 K, combination of DSC and relaxation calorimetry	183.5 ± 7.5
740.8 K, Small sample (50 mg) DSC	183.5 ± 4.5
750.8 K, Small sample (50 mg) DSC	184.5 ± 4.5
760 K, combination of DSC and relaxation calorimetry	185.5 ± 7.5
760.7 K, Small sample (50 mg) DSC	185.7 ± 4.5
770.6 K, Small sample (50 mg) DSC	186.9 ± 4.6
